# Data taken from patent publication US12171813B2, “Methods of and compositions for reducing gene expression and/or activity” (Christiana Care Gene Editing Institute, Inc., priority 2021, dated 2024).
# Tested on: NRF2
# Experiment: cDNA PCR analysis of exon skipping / full-size transcript in NFE2L2
# Format: cell-based, Human
# Settings: gRNA individually applied in the CRISPR reaction; NCI-H1703 clone 44-25 cells
# Description: After CRISPR reactions, total RNA was prepared, and cDNA synthesized for PCR amplification of the target region from NRF2. PCR-amplified DNA was then analyzed by electrophoresis through a 1% agarose gel for 75 minutes at 80v. DNA was stained with SYBR Safe. Lanes 1 and 10: NEB 2 Log Ladder; Lane 2: Scrambled gRNA; Lane 3: NRF2 3-4 SureKill gRNA 3 alone; Lane 4: NRF2 3-4 SureKill gRNA 12 alone; Lane 5: NRF2 3-4 SureKill gRNA 14 alone; Lane 6: NRF2 3-4 SureKill gRNA 15 alone; Lane 7: NRF2 3-4 SureKill gRNA 21 alone; Lane 8: NRF2 3-4 SureKill gRNA 25 alone; Lane 9: NRF2 3-4 SureKill gRNA 26 alone. On the left side of the image are markers indicating DNA size in bp.
# After CRISPR reactions, total RNA was prepared, and cDNA synthesized for PCR amplification of the target region from NRF2. PCR-amplified DNA was then analyzed by electrophoresis through a 1% agarose gel for 75 minutes at 80v. DNA was stained with SYBR Safe. Lane 1: NEB 2 Log Ladder; Lane 2: Scrambled gRNA; Lane 3: R34G gRNA alone; Lane 4: NRF2 3-4 SureKill gRNA 3+R34G gRNA; Lane 5: NRF2 3-4 SureKill gRNA+R34G gRNA; Lane 6: NRF2 3-4 SureKill gRNA 14+R34G gRNA. […]
# Transfections were carried out using the Lonza Nuclefector 4d. […] RNPs were complexed at 250:50 pmol for 30 minutes prior to transfection, during which time cells were harvested and counted. […]
substance,measurement,value
"R34G gRNA: guide RNA GATATAGATCTTGGAGTAAG, SEQ ID NO:1, targets NRF2 R34G mutation (listed as DNA, chemistry not given here)",exon skipping (cDNA analysis),induced some level of exon skipping
